Tested on: adrenal angiotensin II receptors
Assay: Displacement of radiolabelled ligand [^125 I]-SIAII specifically bound to rat adrenal angiotensin II receptors
Type: binding
Settings: rat adrenal homogenate, 60 min at 25° C.
Method: The affinity of the products of the examples for angiotensin II receptors is assessed by a technique of displacement of a radiolabelled ligand specifically bound to the adrenal angiotensin II receptors in the rat.
An aliquot of a rat adrenal homogenate is incubated in the presence of a single concentration of [^125 I]-SIAII(Sar^1 Tyr^4, Ile^8 -angiotensin II) which is an angiotensin II receptor antagonist, and two concentrations of competitive agents ([…]) for 60 min at 25° C.
The reaction is stopped by adding buffer, followed by rapid filtration through glass-paper filters. The non-specific binding is determined in the presence of angiotensin II.
The results are expressed, for the concentrations tested, as a percentage displacement of the radiolabelled ligand specifically bound to the adrenal angiotensin II receptors.

% displacement of the labelled ligand (1E-5M, 10 µM) | % displacement of the labelled ligand (1E-7M, 0.1 µM) | SMILES
66% | 48% | CCCc1nc(C)n2c(=O)[nH]nc2c1Cc1ccc(-c2ccccc2-c2nnn[nH]2)cc1 [Example 19, 7-n-Propyl-5-methyl-8-{[2'-(5-tetrazolyl)-4-biphenylyl]methyl}-1,2,4-triazolo[4,3-c]pyrimidin-3(2H)-one]
60% | 45% | CCCc1nc(C)n2[nH]c(=O)nc2c1Cc1ccc(-c2ccccc2-c2nnn[nH]2)cc1 [Example 20, 7-n-Propyl-5-methyl-8-{[2'-(5-tetrazolyl)-4-biphenylyl]methyl}-1,2,4-triazolo[1,5-c]pyrimidin-2(3H)-one]
75% | 46% | CCCc1nc(C)n2nc(S)nc2c1Cc1ccc(-c2ccccc2-c2nnn[nH]2)cc1 [Example 42, 7-n-propyl-5-methyl-2-mercapto-8-{[2'-(5-tetrazolyl)-4-biphenylyl]methyl}-1,2,4-triazolo[1,5-c]pyrimidine]
69% | 54% | CCCc1nc(C)n2nc(C)nc2c1Cc1ccc(-c2ccccc2-c2nnn[nH]2)cc1 [Example 74, 7-n-Propyl-2,5-dimethyl-8-{[2'-(5-tetrazolyl)-4-biphenylyl}methyl]-1,2,4-triazolo[1,5-c]pyrimidine]
60% | 38% | CCc1nc(C)n2[nH]c(=O)nc2c1Cc1ccc(-c2ccccc2-c2nnn[nH]2)cc1 [Example 97, 7-Ethyl-5-methyl-8-{[2'(5-tetrazolyl)-4-biphenylyl]methyl}-1,2,4-triazolo[1,5-c]pyrimidin-2(3H)-one]
71% | 58% | CCCc1nc(C)n2nc(N)nc2c1Cc1ccc(-c2ccccc2-c2nnn[nH]2)cc1 [Example 107, 7-n-Propyl-5-methyl-2-amino-8-{[2'-(5-tetrazolyl)-4-biphenylyl]methyl}-1,2,4-triazolo[1,5-c]pyrimidine]
60% | 41% | CCCCc1nc(C)n2[nH]c(=O)nc2c1Cc1ccc(-c2ccccc2-c2nnn[nH]2)cc1 [Example 112, 7-n-Butyl-5-methyl-8-{[2'(5-tetrazolyl)-4-biphenylyl]methyl}-1,2,4-triazolo[1,5-c]pyrimidin-2(3H)-one]
61% | 17% | CCCc1nc(CC)n2[nH]c(=O)nc2c1Cc1ccc(-c2ccccc2-c2nnn[nH]2)cc1 [Example 138, 7-n-Propyl-5-ethyl-8-{[2'-(5-tetrazolyl)-4-biphenylyl]methyl}-1,2,4-triazolo[1,5-c]pyrimidin-2(3H)-one]

The next lines start with the molecule.

SMILES | % displacement of the labelled ligand (1E-5M, 10 µM) | % displacement of the labelled ligand (1E-7M, 0.1 µM)
CCCc1nc(C)n2c(=O)n(CCO)nc2c1Cc1ccc(-c2ccccc2-c2nnn[nH]2)cc1 [Example 25, 2-[7-n-Propyl-5-methyl-3-oxo-8-{[2'-(5-tetrazolyl)-4-biphenylyl]methyl}-2,3-dihydro-1,2,4-triazolo[4,3-c]pyrimidin-2-yl]ethanol] | 68% | 54%
CCCCc1nc(C)n2c(=O)[nH]nc2c1Cc1ccc(-c2ccccc2-c2nnn[nH]2)cc1 [Example 36, 7-n-Butyl-5-methyl-8-{[2'-(5-tetrazolyl)-4-biphenylyl]methyl}-1,2,4-triazolo[4,3-c]pyrimidin-3(2H)-one] | 65% | 43%
CCCc1nc(C)n2c(S)nnc2c1Cc1ccc(-c2ccccc2-c2nnn[nH]2)cc1 [Example 68, 7-n-Propyl-5-methyl-3-mercapto-8-{[2'-(5-tetrazolyl)-4-biphenylyl]methyl}-1,2,4-triazolo[4,3-c]pyrimidine] | 67% | 33%
CCCc1nc(C)n2ncnc2c1Cc1ccc(-c2ccccc2-c2nnn[nH]2)cc1 [Example 71, 7-n-propyl-5-methyl-8-{[2'-(5-tetrazolyl)-4-biphenylyl]methyl}-1,2,4-triazolo[1,5-c]pyrimidine] | 73% | 60%
CCCc1nc(C)n2nc(CC)nc2c1Cc1ccc(-c2ccccc2-c2nnn[nH]2)cc1 [Example 78, 7-n-Propyl-5-methyl-8-{[2 '(5-tetrazolyl)-4-biphenylyl]methyl}-2-ethyl-1,2,4-triazolo[1,5-c]pyrimidine] | 67% | 52%
CCCc1nc(C)n2nc(NC)nc2c1Cc1ccc(-c2ccccc2-c2nnn[nH]2)cc1 [Example 80, 7-n-Propyl-5-methyl-2-methylamino-8-{[2'-(5-tetrazolyl)-4-biphenylyl]methyl}-1,2,4-triazolo [1,5-c]pyrimidine] | 74% | 59%
CCc1nc(C)n2nc(C)nc2c1Cc1ccc(-c2ccccc2-c2nn[nH]n2)cc1 [Example 90, 7-Ethyl-2 , 5-dimethyl-8-{[2 '-(5-tetrazolyl)-4-biphenylyl]methyl}-i, 2,4-triazolo[1,5-c]pyrimidine] | 63% | 48%
CCCc1nc(C)n2nc(C(=O)OCC)nc2c1Cc1ccc(-c2ccccc2-c2nnn[nH]2)cc1 [Example 109, Ethyl 7-n-propyl-5-methyl-8-{[2'-(5-tetrazolyl)-4-biphenylyl]methyl}-1,2,4-triazolo[1,5-c]pyrimidine-2-carboxylate] | 67% | 46%
CCCc1nc(C)n2nc(CC(=O)OCC)nc2c1Cc1ccc(-c2ccccc2-c2nnn[nH]2)cc1 [Example 146, Ethyl [7-n-propyl-5-methyl-8-{[2'-(5-tetrazolyl)-4-biphenylyl]methyl}-1,2,4-triazolo[1,5-c]pyrimidin-2-yl]acetate] | 74% | 56%
CCCc1nc(C)n2nc(COC)nc2c1Cc1ccc(-c2ccccc2-c2nnn[nH]2)cc1 [Example 152, 7-n-Propyl-5-methyl-2-methoxymethyl-8-{[2'-(5-tetrazolyl)-4-biphenylyl]methyl}-1,2,4-triazolo[1,5-c]pyrimidine] | 69% | 57%
